Experimental data reported in ChEMBL document CHEMBL4196001, “Design, semisynthesis, α-glucosidase inhibitory, cytotoxic, and antibacterial activities of p-terphenyl derivatives” (Eur J Med Chem, 2018).
pIC50: −log10 of the molar value. In brackets after ≈: the same amount, converted by molar mass. Structures can show the parent of a compound that is named as a salt. Activity calls are given as the source filed them. No cut-off for these calls is given here.

Experiments:
[1] = Cytotoxicity against human Chang cells at 10 uM by SRB assay; assay type: cell-based
A549 [2] = assay: Cytotoxicity against human A549 cells by SRB assay; assay type: functional, cell-based
Alpha glucosidase [3] = target: T1, Alpha glucosidase (Homo sapiens, UniProt O43451+P10253+P14410+Q2M2H8); assay: Inhibition of human alpha-glucosidase expressed in Saccharomyces cerevisiae using p-nitrophenyl-alpha-D-glucopyranoside as substrate after 15 mins
HeLa [4] = assay: Cytotoxicity against human HeLa cells at 10 uM by SRB assay; assay type: functional, cell-based
HepG2 [5] = assay: Cytotoxicity against human HepG2 cells at 10 uM by SRB assay; assay type: functional, cell-based
[6] = Cytotoxicity against human Chang cells by SRB assay; assay type: cell-based
A549 [7] = assay: Cytotoxicity against human A549 cells at 10 uM by SRB assay; assay type: functional, cell-based
Staphylococcus aureus = assay: Antibacterial activity against Staphylococcus aureus after 24 hrs by broth macrodilution method; assay type: functional
HeLa [8] = assay: Cytotoxicity against human HeLa cells by SRB assay; assay type: functional, cell-based
HepG2 [9] = assay: Cytotoxicity against human HepG2 cells by SRB assay; assay type: functional, cell-based
Alpha glucosidase [10] = target: T1, Alpha glucosidase; assay: Inhibition of human alpha-glucosidase expressed in Saccharomyces cerevisiae at 10 uM using p-nitrophenyl-alpha-D-glucopyranoside as substrate after 15 mins by two-fold serial dilution method

| SMILES | Activity [1] | pIC50 (A549 [2]) | IC50 (Alpha glucosidase [3]) [µM] | Activity (HeLa [4]) | Activity (HepG2 [5]) | CC50 [6] [µM] | Activity (A549 [7]) | MIC (Staphylococcus aureus) [µM] | pIC50 (HeLa [8]) | pIC50 (HepG2 [9]) | inhibition (Alpha glucosidase [10]) |
| --- | --- | --- | --- | --- | --- | --- | --- | --- | --- | --- | --- |
| CCCOc1ccc(-c2c(OC)cc(-c3ccc(O)cc3)c(OC)c2O)cc1 | Non-Toxic | 4.99 | 12.3 | inactive | inactive | – | – | – | – | – | – |
| COc1cc(-c2ccc(OCc3ccccc3)cc2)c(OC)c(O)c1-c1ccc(O)cc1 | – | – | 12.5 | inactive | inactive | 39.1 | inactive | 6.25 (≈ 2.68 µg/mL) | – | – | – |
| CCCOc1ccc(-c2cc(OC)c(-c3ccc(O)cc3)c(OCCC)c2OC)cc1 | – | 6.59 | 8.69 | – | – | 0.87 | – | – | 6.74 | 6.31 | – |
| CCCOc1ccc(-c2cc(OC)c(-c3ccc(OCCC)cc3)c(O)c2OC)cc1 | Non-Toxic | – | – | inactive | inactive | – | inactive | – | – | – | inactive |
| COc1cccc2c1C(=O)c1c(O)c3c(c(O)c1C2=O)C[C@@](O)(C(=O)CO)C[C@@H]3O[C@H]1C[C@H](N)[C@H](O)[C@H](C)O1 [DOXORUBICIN HYDROCHLORIDE] | – | 6.80 | – | – | – | – | – | – | – | – | – |
| C=CCOc1ccc(-c2cc(OC)c(-c3ccc(O)cc3)c(O)c2OC)cc1 | Non-Toxic | – | 26.5 | inactive | inactive | – | inactive | – | – | – | – |
| COc1cc(-c2ccc(OCC=C(C)C)cc2)c(OC)c(O)c1-c1ccc(O)cc1 | – | – | 20.1 | inactive | inactive | 26.2 | inactive | 6.25 (≈ 2.54 µg/mL) | – | – | – |
| O=C1C=C(c2ccc(O)cc2)C(=O)C(O)=C1c1ccc(O)cc1 | – | – | 22.7 | inactive | inactive | > 100 | inactive | – | – | – | – |
| COc1cc(-c2ccc(OCCBr)cc2)c(OC)c(OCCBr)c1-c1ccc(O)cc1 | – | 5.51 | 6.67 | – | – | 5.05 | – | – | 5.80 | 5.41 | – |
| COc1c(Br)c(-c2ccc(O)cc2)c(OC)c(O)c1-c1ccc(O)cc1 | Non-Toxic | – | 7.14 | inactive | inactive | – | inactive | 1.56 (≈ 0.651 µg/mL) | – | – | – |
| COc1cc(-c2ccc(O)cc2)c(OC)c(O)c1-c1ccc(OCc2ccccc2)cc1 | – | – | 12.5 | inactive | inactive | 23.1 | inactive | 6.25 (≈ 2.68 µg/mL) | – | – | – |
| CCCOc1ccc(-c2c(OC)cc(-c3ccc(O)cc3)c(OC)c2OCCC)cc1 | – | – | 10.7 | inactive | inactive | 13.1 | inactive | – | – | – | – |
| COc1cc(-c2ccc(OCCN3CCCC3)cc2)c(OC)c(O)c1-c1ccc(O)cc1 | – | – | – | inactive | inactive | – | inactive | – | – | – | – |
| COc1cc(-c2ccc(O)cc2)c(OC)c(OCC=C(C)C)c1-c1ccc(O)cc1 | – | – | 23.4 | inactive | inactive | 15.9 | inactive | 6.25 (≈ 2.54 µg/mL) | – | – | – |
| C=CCOc1c(OC)c(-c2ccc(O)cc2)cc(OC)c1-c1ccc(O)cc1 | Non-Toxic | – | 83.8 | inactive | inactive | – | inactive | – | – | – | – |
| COc1cc(-c2ccc(O)cc2)c(OC)c(O)c1-c1ccc(OC(c2ccccc2)c2ccccc2)cc1 | – | – | – | inactive | inactive | 48.3 | inactive | – | – | – | – |
| COc1cc(-c2ccc(OCCBr)cc2)c(OC)c(OCCBr)c1-c1ccc(OCCBr)cc1 | Non-Toxic | – | – | inactive | inactive | – | inactive | – | – | – | inactive |
| C=CCOc1ccc(-c2cc(OC)c(-c3ccc(O)cc3)c(OCC=C)c2OC)cc1 | – | 6.60 | 8.77 | – | – | < 0.62 | – | – | 6.82 | 6.37 | – |
| C#CCOc1ccc(-c2cc(OC)c(-c3ccc(O)cc3)c(OCC#C)c2OC)cc1 | – | 6.10 | 20.1 | – | – | 2.31 | – | – | 6.17 | 5.91 | – |
| COc1cc(-c2ccc(OCC=C(C)C)cc2)c(OC)c(OCC=C(C)C)c1-c1ccc(OCC=C(C)C)cc1 | Non-Toxic | – | – | inactive | inactive | – | inactive | – | – | – | inactive |
| CCCOc1ccc(-c2cc(OC)c(-c3ccc(OCCC)cc3)c(OCCC)c2OC)cc1 | Non-Toxic | – | – | inactive | inactive | – | inactive | – | – | – | inactive |
